Test results: US7172871B1, “Methods and compositions for modulating axonal outgrowth of central nervous system neurons” (Children's Medical Center Corporation, priority 2000, dated 2007)

Tested on: N-kinase
Assay: in-gel kinase method (histone HF-1 substrate, [32P]-ATP)
Assay type: biochemical
Details: in-gel kinase assay, [32P]-ATP plus Mn2+, with or without 6-TG present; bovine brain fractions
Experimental: During the purification process, kinase activity was monitored using an in-gel kinase method. In this method, a histone HF-1 substrate protein is polymerized into a 10% polyacrylamide gel before the samples to be analyzed are electrophoresed in the gel. Following completion of the electrophoresis, proteins are partially renatured with guanidium isothiocyanate and incubated in the presence [^32P]-ATP plus Mn^2+, with or without 6-TG present. (Activation by Mn^2+, but not by Mg^2+ or Ca^2+, is a distinctive property of N-kinase). The purification of the kinase was monitored by looking for a 6-TG-inhibitable radioactive band corresponding to the site where the kinase phosphorylates the HF-1 substrate in the gel.

Nc1nc2nc[nH]c2c(=S)[nH]1 [6-TG, 6-thioguanine]
inhibition of N-kinase HF-1-phosphorylating activity: inhibitable
